Where “and” joins values, the source holds several entries; their conditions need not be identical. Equal values may be shown once. Read-outs that look alike come from different tables or passages of the source.
Key:
[1] = tested on: E. coli/pET-22b (Control); experiment: Disk diffusion assay; format: cell-based, E. coli BL21 Rosetta (DE3); details: Escherichia coli, 24 h, read-out: inhibition zones
Protocol: The E. coli BL21 Rosetta (DE3) strains containing pET22b, and its carrying cph, cph001, cph002, cph003, aph(3′)-Ia, and mphB plasmids were cultured overnight. The cells, respectively, were then diluted to 0.1 OD600 in molten LB agar with 100 μg/mL ampicillin and 500 μM IPTG for the disk diffusion assay. The cells with ampicillin and IPTG were mixed well with molten LB agar and then poured into 10 cm diameter Petri dishes. […] The Petri dishes were placed in the incubator at 37 °C and the inhibition zones were observed after 24 hr.

E. coli/cph001 = experiment: Disk diffusion assay; format: cell-based, E. coli BL21 Rosetta (DE3)
Protocol: (§1) The E. coli BL21 Rosetta (DE3) strains containing pET22b, and its carrying cph, cph001, cph002, cph003, aph(3′)-Ia, and mphB plasmids were cultured overnight. The cells, respectively, were then diluted to 0.1 OD600 in molten LB agar with 100 μg/mL ampicillin and 500 μM IPTG for the disk diffusion assay. The cells with ampicillin and IPTG were mixed well with molten LB agar and then poured into 10 cm diameter Petri dishes. The 7 mm disks were placed onto the LB agar and gently loaded with varying quantities of CMN IIA, CMN IIB, VIO, Kan, and Ery, ranging from 0 to 200 μg. The Petri dishes were placed in the incubator at 37 °C and the inhibition zones were observed after 24 hr.

E. coli/cph002 = experiment: Disk diffusion assay; format: cell-based, E. coli BL21 Rosetta (DE3)
Protocol: as §1

E. coli/cph003 = experiment: Disk diffusion assay; format: cell-based, E. coli BL21 Rosetta (DE3)
Protocol: as §1

E. coli/cph = experiment: Disk diffusion assay; format: cell-based, E. coli BL21 Rosetta (DE3)
Protocol: as §1

Cph001 = experiment: Coupled enzyme assay and Michaelis-Menten kinetics of Cph001; format: biochemical, Streptosporangium roseum; details: for initial velocity, Figure 3c ii, Triplicate: 2 mM GTP; for initial velocity, Figure 3c i, Triplicate: 2 mM ATP; for absorbance at 340 nm, Average of triplicate: 2 mM substrate + ATP
Protocol: The phosphorylation reaction was measured by a coupled enzyme assay as following. […] The reactions were mixed well in a final volume of 200 μL in 96-well plates. The Cph001 activity was assayed by determining the oxidation of NADH at 340 nm. The reaction buffer and enzyme concentration of the Cph reaction was followed by previous study. The 340 nm absorbance changes were detected at 30 °C for every 1 min at a time in 15 min on an EPOCH Microplate Reader (BioTek). All reactions were carried out in triplicate.
The initial velocity data were plotted against substrate concentrations and fit the Michaelis-Menten equation. The Km and Vmax values were calculated based on the Michaelis-Menten equation. GraphPad Prism was used for statistical data analysis. All reactions were carried out in triplicate.

Cph001^D189N = experiment: Coupled enzyme assay of Cph001 variant; format: biochemical, Streptosporangium roseum; details: for absorbance at 340 nm, Average of triplicate: 2 mM substrate + ATP
Protocol: The phosphorylation reaction was measured by a coupled enzyme assay as following. The reaction 1, performed by 0.77 μM Cph001 with 2 mM antibiotic substrates (CMN IIA, CMN IIB, VIO, Kan, or Ery), was coupled to the reaction 2 and 3 in the presence of 4 U PK (pyruvate kinase from rabbit muscle, Merck), 4 U LDH (lactate dehydrogenase from rabbit muscle, Merck), 2 mM ATP or GTP, 2 mM PEP (phosphoenolpyruvate), 0.5 mM NADH, 40 mM KCl and 5 mM MgCl2 in a reaction buffer containing 400 mM NaCl and 20 mM Tris buffer at pH 8.0. The reactions were mixed well in a final volume of 200 μL in 96-well plates. The Cph001 activity was assayed by determining the oxidation of NADH at 340 nm. The reaction buffer and enzyme concentration of the Cph reaction was followed by previous study. The 340 nm absorbance changes were detected at 30 °C for every 1 min at a time in 15 min on an EPOCH Microplate Reader (BioTek). All reactions were carried out in triplicate.

[2] = Escherichia coli, 24 h, read-out: inhibition zones

For `N=C1NCCC([C@@H]2NC(=O)/C(=C/NC(N)=O)NC(=O)[C@H](CNC(=O)C[C@@H](N)CCCN)NC(=O)[C@H](CO)NC(=O)[C@@H](N)CNC2=O)N1` (stereo in doubt) [CMN IIA], the zone of inhibition at 12.5 µg/disc [1] was 17 mm, the zone of inhibition at 50 µg/disc [1] was 22 mm and the zone of inhibition at 100 µg/disc [1] was 24 mm. For the same compound, the zone of inhibition at 200 µg/disc [1] was 27.5 mm, the “resistance in disk diffusion assay” value (E. coli/cph001; E. coli harboring cph001) was “becomes resistant” and the zone of inhibition at 12.5 µg/disc (E. coli/cph001; [2]) was 9.5 mm. The zone of inhibition at 50 µg/disc (E. coli/cph001; [2]) was 13 mm, the zone of inhibition at 100 µg/disc (E. coli/cph001; [2]) was 15 mm and the zone of inhibition at 200 µg/disc (E. coli/cph001; [2]) was 18 mm. For the same compound, the “resistance in disk diffusion assay” value (E. coli/cph002; E. coli harboring cph002) was “becomes resistant”, the zone of inhibition at 12.5 µg/disc (E. coli/cph002; [2]) was 14 mm and the zone of inhibition at 50 µg/disc (E. coli/cph002; [2]) was 17 mm. The zone of inhibition at 100 µg/disc (E. coli/cph002; [2]) was 19.5 mm, the zone of inhibition at 200 µg/disc (E. coli/cph002; [2]) was 23 mm and the “resistance in disk diffusion assay” value (E. coli/cph003; E. coli harboring cph003) was “becomes resistant”. The zone of inhibition at 12.5 µg/disc (E. coli/cph003; [2]) was 13 mm, the zone of inhibition at 50 µg/disc (E. coli/cph003; [2]) was 16 mm and the zone of inhibition at 100 µg/disc (E. coli/cph003; [2]) was 20 mm. The zone of inhibition at 200 µg/disc (E. coli/cph003; [2]) was 22 mm, the “resistance in disk diffusion assay” value (E. coli/cph; E. coli harboring cph) was “becomes resistant” and the zone of inhibition at 50 µg/disc (E. coli/cph; [2]) was 11 mm. For the same compound, the zone of inhibition at 100 µg/disc (E. coli/cph; [2]) was 13 mm, the zone of inhibition at 200 µg/disc (E. coli/cph; [2]) was 15.5 mm and the “initial velocity, Figure 3c ii, Triplicate” value (Cph001; 0.4 mM CMN IIA) was 5.814e-5 and 4.992e-5 and 4.228e-5. For the same compound, the “initial velocity, Figure 3c i, Triplicate” value (Cph001; 0.5 mM CMN IIA) was 0.0001245 and 0.0001897 and 0.0001595, the “initial velocity, Figure 3c ii, Triplicate” value (Cph001; 0.5 mM CMN IIA) was 6.636e-5 and 7.341e-5 and 7.765e-5 and the “initial velocity, Figure 3c i, Triplicate” value (Cph001; 0.7 mM CMN IIA) was 0.0002053 and 0.000222 and 0.0002263. The “initial velocity, Figure 3c ii, Triplicate” value (Cph001; 0.7 mM CMN IIA) was 9.514e-5 and 7.693e-5 and 6.952e-5, the “initial velocity, Figure 3c i, Triplicate” value (Cph001; 1 mM CMN IIA) was 0.0002288 and 0.0002649 and 0.0003551 and the “initial velocity, Figure 3c ii, Triplicate” value (Cph001; 1 mM CMN IIA) was 0.0001233 and 0.000121 and 0.0001065. For the same compound, the “initial velocity, Figure 3c i, Triplicate” value (Cph001; 2 mM CMN IIA) was 0.0003304 and 0.0004291 and 0.0004233, the “initial velocity, Figure 3c ii, Triplicate” value (Cph001; 2 mM CMN IIA) was 0.0002014 and 0.0002003 and 0.0001825 and the “phosphorylation by Cph001 in couple enzyme assay” value (Cph001; 2 mM antibiotic substrate, ATP as phosphate donor, absorbance at 340 nm) was “decrease in absorbance at 340 nm”. The “initial velocity, Figure 3c i, Triplicate” value (Cph001; 4 mM CMN IIA) was 0.0003294 and 0.0004402 and 0.000432, the “initial velocity, Figure 3c ii, Triplicate” value (Cph001; 4 mM CMN IIA) was 0.0001744 and 0.0002267 and 0.0002057 and the “initial velocity, Figure 3c i, Triplicate” value (Cph001; 6 mM CMN IIA) was 0.0003263 and 0.0004514 and 0.0003777. The “initial velocity, Figure 3c ii, Triplicate” value (Cph001; 6 mM CMN IIA) was 0.0002402 and 0.000232 and 0.000183, the Km (Cph001; ATP as phosphate donor (2 mM), pseudo-first-order conditions, mean ± SEM, n = 3, read-out: apparent Michaelis constant (Km) of CMN IIA) was 880 ± 200 µM and the Km (Cph001; ATP series, first manuscript version as quoted by Reviewer #1, read-out: measured Km of CMN IIA) was 876 µM. For the same compound, the Km (Cph001; GTP series, first manuscript version as quoted by Reviewer #1, read-out: measured Km of CMN IIA) was 1400 µM, the Km (Cph001; saturating GTP as phosphate donor (2 mM), mean ± SEM, n = 3, read-out: apparent Km of CMN IIA) was 1400 ± 240 µM and the “absorbance at 340 nm, Average of triplicate” value (“absorbance at 340 nm, Average” for short) (Cph001; time 00:00:00) was 1.495. The “absorbance at 340 nm, Average” value (Cph001; time 00:01:00) was 1.277, the “absorbance at 340 nm, Average” value (Cph001; time 00:02:00) was 0.9337 and the “absorbance at 340 nm, Average” value (Cph001; time 00:03:00) was 0.6673. For the same compound, the “absorbance at 340 nm, Average” value (Cph001; time 00:04:00) was 0.5687, the “absorbance at 340 nm, Average” value (Cph001; time 00:05:00) was 0.52 and the “absorbance at 340 nm, Average” value (Cph001; time 00:06:00) was 0.3975. For the same compound, the “absorbance at 340 nm, Average” value (Cph001; time 00:07:00) was 0.2841, the “absorbance at 340 nm, Average” value (Cph001; time 00:08:00) was 0.2044 and the “absorbance at 340 nm, Average” value (Cph001; time 00:09:00) was 0.1613. The “absorbance at 340 nm, Average” value (Cph001; time 00:10:00) was 0.1364, the “absorbance at 340 nm, Average” value (Cph001; time 00:11:00) was 0.1231 and the “absorbance at 340 nm, Average” value (Cph001; time 00:12:00) was 0.1177. The “absorbance at 340 nm, Average” value (Cph001; time 00:13:00) was 0.1173, the “absorbance at 340 nm, Average” value (Cph001; time 00:14:00) was 0.1173 and the “absorbance at 340 nm, Average” value (Cph001; time 00:15:00) was 0.1177. The “phosphotransferase activity of variant” value (Cph001^D189N; CMN IIA + ATP) was “complete loss of phosphotransferase activity”, the “absorbance at 340 nm, Average” value (Cph001^D189N; time 00:00:00) was 1.495 and the “absorbance at 340 nm, Average” value (Cph001^D189N; time 00:01:00) was 1.553. For the same compound, the “absorbance at 340 nm, Average” value (Cph001^D189N; time 00:02:00) was 1.591, the “absorbance at 340 nm, Average” value (Cph001^D189N; time 00:03:00) was 1.622 and the “absorbance at 340 nm, Average” value (Cph001^D189N; time 00:04:00) was 1.655. For the same compound, the “absorbance at 340 nm, Average” value (Cph001^D189N; time 00:05:00) was 1.685, the “absorbance at 340 nm, Average” value (Cph001^D189N; time 00:06:00) was 1.709 and the “absorbance at 340 nm, Average” value (Cph001^D189N; time 00:07:00) was 1.733. The “absorbance at 340 nm, Average” value (Cph001^D189N; time 00:08:00) was 1.755, the “absorbance at 340 nm, Average” value (Cph001^D189N; time 00:09:00) was 1.775 and the “absorbance at 340 nm, Average” value (Cph001^D189N; time 00:10:00) was 1.791. For the same compound, the “absorbance at 340 nm, Average” value (Cph001^D189N; time 00:11:00) was 1.804, the “absorbance at 340 nm, Average” value (Cph001^D189N; time 00:12:00) was 1.814 and the “absorbance at 340 nm, Average” value (Cph001^D189N; time 00:13:00) was 1.823. The “absorbance at 340 nm, Average” value (Cph001^D189N; time 00:14:00) was 1.83 and the “absorbance at 340 nm, Average” value (Cph001^D189N; time 00:15:00) was 1.791.

Source: article PMC10730852 (Communications Biology, 2023)
